According to article PMC10614163 (ACS nano, 2023):

Key:
M^pro = M^pro (Severe acute respiratory syndrome coronavirus 2, UniProt P0DTD1); experiment: M^pro-mediated dye release from coacervates; type: biochemical, SARS-CoV-2; conditions: (R5R5, D10) coacervates, 100 μM dye
[1] = for partitioning / effect on coacervates, in words: confocal microscopy, (R5R5, D10) coacervates

Row | Structure (SMILES) | Release efficiency, RE%, by M^pro (M^pro) | Encapsulation efficiency, EE% [1] | partitioning / effect on coacervates, in words [1]
1 | CN(C)c1ccc2nc3ccc(N)cc3[s+]c2c1.[Cl-] [Azure A, azure A] | 95 ± 1% | 50 ± 1% | 
2 | CNc1ccc2nc3ccc(N)cc3[s+]c2c1 [Azure C, azure C] | 98 ± 1% | 65 ± 2% | 
3 | O=C1OC2(c3ccc(O)cc3Oc3cc(O)ccc32)c2ccccc21 [Fluoresceine, fluoresceine] | 73 ± 7% |  | 
4 | CC1(C)C(/C=C/C=C/C=C/C=C2\N(CCCCS(=O)(=O)[O-])c3ccc4ccccc4c3C2(C)C)=[N+](CCCCS(=O)(=O)[O-])c2ccc3ccccc3c21.[Na+] [ICG dye] |  |  | rapidly cause transformation of coacervates into solid aggregates
5 | Cc1cc2nc3ccc(N(C)C)cc3nc2cc1N.Cl [Neutral red, neutral red] | 99 ± 1% | 93 ± 1% | 
6 | CC/N=c1\cc2oc3cc(NCC)c(C)cc3c(-c3ccccc3C(=O)OCC)c-2cc1C [Rhodamine 6G, rhodamine 6G] | 98 ± 1% | 64 ± 4% | 
7 | CCN(CC)c1ccc2c(-c3ccccc3C(=O)O)c3ccc(=[N+](CC)CC)cc-3oc2c1 [Rhodamine B, rhodamine B] | 96 ± 2% | 56 ± 1% | 
8 | COc1cccc2c1C(=O)c1c(O)c3c(c(O)c1C2=O)C[C@@](O)(C(=O)CO)C[C@@H]3O[C@H]1C[C@H](N)[C@H](O)[C@H](C)O1 [doxorubicin] |  |  | rapidly cause transformation of coacervates into solid aggregates
